Results: patent US9040545B2, “Heterocyclyl pyrazolopyrimidine analogues as selective JAK inhibitors” (Cellzome Limited, priority 2010, dated 2015)

Biological target: T1, Aurora A (Homo sapiens, UniProt O14965)
T1 construct: cell lysates from Jurkat cells (ATCC TIB-152) used; endogenous in cells; host or cells: Jurkat cells (ATCC TIB-152), treated with pervanadate
T1 sequence (O14965 1-403): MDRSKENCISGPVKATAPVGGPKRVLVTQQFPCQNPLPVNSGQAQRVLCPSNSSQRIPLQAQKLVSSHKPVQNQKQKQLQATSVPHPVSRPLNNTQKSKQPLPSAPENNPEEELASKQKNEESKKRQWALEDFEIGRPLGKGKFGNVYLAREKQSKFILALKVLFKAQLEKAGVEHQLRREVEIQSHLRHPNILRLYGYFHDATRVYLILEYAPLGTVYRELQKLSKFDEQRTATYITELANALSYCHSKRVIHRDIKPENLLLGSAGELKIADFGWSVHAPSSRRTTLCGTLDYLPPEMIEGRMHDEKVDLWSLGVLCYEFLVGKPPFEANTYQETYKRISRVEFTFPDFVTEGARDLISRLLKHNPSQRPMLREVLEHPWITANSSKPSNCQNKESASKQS
Assay: Kinobeads assay, Aurora A
Type: binding
Conditions: for IC50: lysate of pervanadate-treated Jurkat cells, read-out: Inhibition values (IC50) Aur A

Row | JAK3/AurA Fold Selectivity | IC50 | SMILES
1 | 3-10 Fold | < 100 nM | Cn1cc(Nc2ncc3cnn(Cc4cccc(NC5COC5)c4)c3n2)cn1 [Example 114, N-(1-methyl-1H-pyrazol-4-yl)-1-(3-(oxetan-3-ylamino)benzyl)-1H-pyrazolo[3,4-d]pyrimidin-6-amine]
2 | 10-50 Fold | 1000 to 10000 nM | Cn1cc(Nc2ncc3cnn(Cc4cccc(N5CCCCC5)c4)c3n2)cn1 [Example 8, N-(1-Methyl-1H-pyrazol-4-yl)-1-(3-(piperidin-1-yl)benzyl)-1H-pyrazolo[3,4-d]pyrimidin-6-amine]
3 | 3-10 Fold | 100 to 1000 nM | Cn1cc(Nc2ncc3cnn(Cc4cccc(N5CC6CCC(C5)O6)c4)c3n2)cn1 [Example 26]
4 | 3-10 Fold | 100 to 1000 nM | CC(C)n1cc(-c2cccc(Cn3ncc4cnc(Nc5cnn(C)c5)nc43)c2)cn1 [Example 117, 1-(3-(1-isopropyl-1H-pyrazol-4-yl)benzyl)-N-(1-methyl-1H-pyrazol-4-yl)-1H-pyrazolo[3,4-d]pyrimidin-6-amine]
5 | 3-10 Fold | < 100 nM | CNCCCn1cc(Nc2ncc3cnn(Cc4cc(F)cc(N5CCOCC5=O)c4)c3n2)cn1 [Example 99, 4-(3-fluoro-5-((6-((1-(3-(methylamino)propyl)-1H-pyrazol-4-yl)amino)-1H-pyrazolo[3,4-d]pyrimidin-1-yl)methyl)phenyl)morpholin-3-one]
6 | 10-50 Fold | 1000 to 10000 nM | CCCn1cc(-c2cccc(Cn3ncc4cnc(Nc5cnn(C)c5)nc43)c2)cn1 [Example 119, N-(1-methyl-1H-pyrazol-4-yl)-1-(3-(1-propyl-1H-pyrazol-4-yl)benzyl)-1H-pyrazolo[3,4-d]pyrimidin-6-amine]
7 | 10-50 Fold | 100 to 1000 nM | Cc1c(Cn2ncc3cnc(Nc4cnn(C)c4)nc32)cccc1N1CCOCC1 [Example 11, N-(1-Methyl-1H-pyrazol-4-yl)-1-(2-methyl-3-morpholinobenzyl)-1H-pyrazolo[3,4-d]pyrimidin-6-amine]
8 | 10-50 Fold | 100 to 1000 nM | OCCCn1cc(Nc2ncc3cnn(Cc4cccc(N5CCOCC5)c4)c3n2)cn1 [Example 18, 3-(4-((1-(3-Morpholinobenzyl)-1H-pyrazolo[3,4-d]pyrimidin-6-yl)amino)-1H-pyrazol-1-yl)propan-1-ol]
9 | 10-50 Fold | 100 to 1000 nM | Cn1cc(Nc2ncc3cnn(Cc4cccc(N5CCNCC5=O)c4)c3n2)cn1 [Example 36, 1-(3-((6-((1-Methyl-1H-pyrazol-4-yl)amino)-1H-pyrazolo[3,4-d]pyrimidin-1-yl)methyl)phenyl)piperazin-2-one]
10 | 10-50 Fold | 100 to 1000 nM | Cn1cc(Nc2ncc3cnn(Cc4cc(F)cc(N5CCNCC5)c4F)c3n2)cn1 [Example 95, 1-(2,5-difluoro-3-(piperazin-1-yl)benzyl)-N-(1-methyl-1H-pyrazol-4-yl)-1H-pyrazolo[3,4-d]pyrimidin-6-amine]
11 | 10-50 Fold | 100 to 1000 nM | O=C1CCCN1CCCn1cc(Nc2ncc3cnn(Cc4cccc(N5CCOCC5)c4)c3n2)cn1 [Example 30, 1-(3-(4-((1-(3-Morpholinobenzyl)-1H-pyrazolo[3,4-d]pyrimidin-6-yl)amino)-1H-pyrazol-1-yl)propyl)pyrrolidin-2-one]
12 | 10-50 Fold | 100 to 1000 nM | Cn1cc(Nc2ncc3cnn(Cc4cccc(N5CCC6(COC6)C5)c4)c3n2)cn1 [Example 104, 1-(3-(2-oxa-6-azaspiro[3.4]octan-6-yl)benzyl)-N-(1-methyl-1H-pyrazol-4-yl)-1H-pyrazolo[3,4-d]pyrimidin-6-amine]
13 | 10-50 Fold | ≥ 10000 nM | Cn1cc(Nc2ncc3cnn(Cc4cc(F)cc(N5CC6(COC6)C5)c4)c3n2)cn1 [Example 90, 1-(3-fluoro-5-(2-oxa-6-azaspiro[3.3]heptan-6-yl)benzyl)-N-(1-methyl-1H-pyrazol-4-yl)-1H-pyrazolo[3,4-d]pyrimidin-6-amine]
14 |  | ≥ 10000 nM | Cn1cc(Nc2ncc3cnn(Cc4cccc(N5CC6(COC6)C5)c4F)c3n2)cn1 [Example 91, 1-(2-fluoro-3-(2-oxa-6-azaspiro[3.3]heptan-6-yl)benzyl)-N-(1-methyl-1H-pyrazol-4-yl)-1H-pyrazolo[3,4-d]pyrimidin-6-amine]
15 | 10-50 Fold | 100 to 1000 nM | NCCCn1cc(Nc2ncc3cnn(Cc4cccc(N5CCOCC5)c4)c3n2)cn1 [Example 34, N-(1-(3-Aminopropyl)-1H-pyrazol-4-yl)-1-(3-morpholinobenzyl)-1H-pyrazolo[3,4-d]pyrimidin-6-amine]
16 | 3-10 Fold | 100 to 1000 nM | CN1CCN(c2cccc(Cn3ncc4cnc(Nc5cnn(C)c5)nc43)c2)CC1 [Example 10, N-(1-Methyl-1H-pyrazol-4-yl)-1-(3-(4-methylpiperazin-1-yl)benzyl)-1H-pyrazolo[3,4-d]pyrimidin-6-amine]
17 | 10-50 Fold | 100 to 1000 nM | Cn1cc(Nc2ncc3cnn(Cc4cccc(N5CCOCC5=O)c4)c3n2)cn1 [Example 27, 4-(3-((6-((1-Methyl-1H-pyrazol-4-yl)amino)-1H-pyrazolo[3,4-d]pyrimidin-1-yl)methyl)phenyl)morpholin-3-one]
18 | 3-10 Fold | 100 to 1000 nM | CNC(=O)Cn1cc(Nc2ncc3cnn(Cc4cccc(N5CCOCC5)c4)c3n2)cn1 [Example 12, N-Methyl-2-(4-((1-(3-morpholinobenzyl)-1H-pyrazolo[3,4-d]pyrimidin-6-yl)amino)-1H-pyrazol-1-yl)acetamide]
19 | 10-50 Fold | 1000 to 10000 nM | Cn1cc(Nc2ncc3cnn(Cc4cc(N5CCOCC5)cc(F)c4F)c3n2)cn1 [Example 37, 1-(2,3-Difluoro-5-morpholinobenzyl)-N-(1-methyl-1H-pyrazol-4-yl)-1H-pyrazolo[3,4-d]pyrimidin-6-amine]
20 | >50 Fold | 1000 to 10000 nM | CN(C)CCCn1cc(Nc2ncc3cnn(Cc4cccc(N5CCOCC5)c4)c3n2)cn1 [Example 4, N-(1-(3-(Dimethylamino)propyl)-1H-pyrazol-4-yl)-1-(3-morpholinobenzyl)-1H-pyrazolo[3,4-d]pyrimidin-6-amine]
